Key:
[1] = Cytotoxicity against human BGC-7901 cells by MTT assay; assay type: functional, cell-based
A549 = experiment: Cytotoxicity against human A549 cells by MTT assay; assay type: functional, cell-based
SW480 = experiment: Cytotoxicity against human SW480 cells by MTT assay; assay type: functional, cell-based
B16 [2] = experiment: Cytotoxicity against mouse B16 cells by MTT assay; assay type: functional, cell-based
B16 [3] = experiment: Antitumor activity in mouse B16 cell xenografted mouse at 20 mg/kg/day, ip after 4 days; assay type: functional; settings: 96 h, route intraperitoneal
HL-60 = experiment: Cytotoxicity against human HL60 cells by MTT assay; assay type: functional, cell-based
H22 [4] = experiment: Antitumor activity in mouse H22 cell xenografted mouse at 20 mg/kg/day, ip after 4 days; assay type: functional; settings: 96 h, route intraperitoneal
Bel-7402 = experiment: Cytotoxicity against human BEL-7402 cells by MTT assay; assay type: functional, cell-based
B16 [5] = experiment: Antitumor activity in mouse B16 cell xenografted mouse at 20 mg/kg/day, iv after 4 days; assay type: functional; settings: B16, 96 h
H22 [6] = experiment: Antitumor activity in mouse H22 cell xenografted mouse at 20 mg/kg/day, iv after 4 days; settings: 96 h, read-out: INH

SMILES | IC50 [1] | IC50 (A549) | IC50 (SW480) | IC50 (B16 [2]) | inhibition in vivo at 20 mg/kg/day (B16 [3]) | IC50 (HL-60) | inhibition in vivo at 20 mg/kg/day (H22 [4]) | IC50 (Bel-7402; read-out: IC50) | inhibition in vivo at 20 mg/kg/day (B16 [5]) | IC50 (Bel-7402) | inhibition in vivo at 20 mg/kg/day (H22 [6])
C=C1C(=O)[C@]23[C@H](OC(=O)C(Cc4ccccc4)NC(=O)/C=C/C(=O)O)[C@@H]1CC[C@H]2[C@@]12CO[C@]3(O)[C@@H](O)[C@@H]1C(C)(C)CCC2=O (stereo partly specified) | 3.02 µM | 3.46 µM | 2.89 µM | 8.22 µM | 61.2% | 2.07 µM | 62.5% | 1 µM |  |  | 
C=C1C(=O)[C@]23[C@H](OC(=O)CNC(=O)CCCCC(=O)O)[C@@H]1CC[C@H]2[C@@]12CO[C@]3(O)[C@@H](O)[C@@H]1C(C)(C)CCC2=O | 15.1 µM | 7.47 µM | 10.2 µM | 16.4 µM |  | 8.65 µM |  | 13.8 µM |  |  | 
C=C1C(=O)[C@]23[C@H](OC(=O)CNC(=O)CCC(=O)O)[C@@H]1CC[C@H]2[C@@]12CO[C@]3(O)[C@@H](O)[C@@H]1C(C)(C)CCC2=O | 15.6 µM | 11.5 µM | 10.2 µM | 8.57 µM |  | 7.76 µM |  | 2.09 µM |  |  | 
C=C1C(=O)[C@]23[C@H](OC(=O)C(Cc4ccccc4)NC(=O)CCCCC(=O)O)[C@@H]1CC[C@H]2[C@@]12CO[C@]3(O)[C@@H](O)[C@@H]1C(C)(C)CCC2=O (stereo partly specified) | 7.05 µM | 8.06 µM | 7.3 µM | 13.9 µM |  | 6.24 µM |  | 12.8 µM |  |  | 
C=C1C(=O)[C@]23[C@H](OC(=O)C(Cc4ccccc4)NC(=O)CCC(=O)O)[C@@H]1CC[C@H]2[C@@]12CO[C@]3(O)[C@@H](O)[C@@H]1C(C)(C)CCC2=O (stereo partly specified) | 5.96 µM | 17.1 µM | 12.9 µM | 14.8 µM | 56.6% | 2.31 µM | 59.1% | 6.5 µM |  |  | 
C=C1C(=O)[C@]23[C@H](OC(=O)CNC(=O)/C=C/C(=O)O)[C@@H]1CC[C@H]2[C@@]12CO[C@]3(O)[C@@H](O)[C@@H]1C(C)(C)CC[C@@H]2OS(=O)(=O)CCC | 5.52 µM | 1.33 µM | 14.7 µM | 5.66 µM |  | 1.97 µM |  | 19.1 µM |  |  | 
C=C1C(=O)[C@]23[C@H](OC(=O)C(N)Cc4ccccc4)[C@@H]1CC[C@H]2[C@@]12CO[C@]3(O)[C@@H](O)[C@@H]1C(C)(C)CCC2=O (stereo partly specified) | 10.5 µM | 22.2 µM | 15 µM | 10.2 µM |  | 27.5 µM |  | 29.6 µM |  |  | 
C=C1C(=O)[C@]23[C@H](OC(=O)CNC(=O)CCCCC(=O)O)[C@@H]1CC[C@H]2[C@@]12CO[C@]3(O)[C@@H](O)[C@@H]1C(C)(C)CC[C@@H]2OC(C)=O | 13.2 µM | 10.5 µM | 10.7 µM | 12.5 µM |  | 5.3 µM |  | 8.26 µM |  |  | 
C=C1C(=O)[C@]23[C@H](OC(=O)CN)[C@@H]1CC[C@H]2[C@@]12CO[C@]3(O)[C@@H](O)[C@@H]1C(C)(C)CC[C@@H]2OC(C)=O | 18.2 µM | 11 µM | 22.3 µM | 12.4 µM |  | 12.3 µM |  | 17.9 µM |  |  | 
C=C1C(=O)[C@]23[C@H](O)[C@H]1CC[C@H]2[C@@]12CO[C@]3(O)[C@@H](O)[C@@H]1C(C)(C)CC[C@@H]2O [ORIDONIN] | 28.3 µM | 27.2 µM | 31.4 µM | 26.2 µM | 45.9% | 32.8 µM | 42.7% | 39.8 µM |  |  | 
C=C1C(=O)[C@]23[C@H](OC(=O)CN)[C@@H]1CC[C@H]2[C@@]12CO[C@]3(O)[C@@H](O)[C@@H]1C(C)(C)CCC2=O | 20.9 µM | 20.6 µM | 28.4 µM | 19.1 µM |  | 24.8 µM |  | 30.3 µM |  |  | 
O=c1[nH]cc(F)c(=O)[nH]1 [FLUOROURACIL] | 16.4 µM | 10.8 µM | 13.2 µM | 8.73 µM |  | 21.4 µM |  |  | 73.5% | 14.4 µM | 
C=C1C(=O)[C@]23[C@H](OC(=O)CN)[C@@H]1CC[C@H]2[C@@]12CO[C@]3(O)[C@@H](O)[C@@H]1C(C)(C)CC[C@@H]2OS(=O)(=O)CCC | 15.9 µM | 16.3 µM | 24.7 µM | 21.7 µM |  | 19.8 µM |  | 20.2 µM |  |  | 
C=C1C(=O)[C@]23[C@H](OC(=O)CNC(=O)c4ccccc4C(=O)O)[C@@H]1CC[C@H]2[C@@]12CO[C@]3(O)[C@@H](O)[C@@H]1C(C)(C)CC[C@@H]2OS(=O)(=O)CCC | 20.9 µM | 22.7 µM | 25.4 µM | 17.6 µM |  | 13.8 µM |  | 39.1 µM |  |  | 
C=C1C(=O)[C@]23[C@H](OC(=O)CNC(=O)CCCCC(=O)O)[C@@H]1CC[C@H]2[C@@]12CO[C@]3(O)[C@@H](O)[C@@H]1C(C)(C)CC[C@@H]2OS(=O)(=O)CCC | 15.3 µM | 14 µM | 11.2 µM | 13 µM |  | 9.5 µM |  | 24.8 µM |  |  | 
O=P1(N(CCCl)CCCl)NCCCO1 (stereo unspecified) [CYCLOPHOSPHAMIDE ANHYDROUS] |  |  |  |  |  |  |  |  |  |  | 54.3%
C=C1C(=O)[C@]23[C@H](OC(=O)CNC(=O)/C=C/C(=O)O)[C@@H]1CC[C@H]2[C@@]12CO[C@]3(O)[C@@H](O)[C@@H]1C(C)(C)CC[C@@H]2OC(C)=O | 2.78 µM | 2.6 µM | 2.6 µM | 0.93 µM | 69.9% | 0.84 µM | 64.9% | 1 µM |  |  | 

— ChEMBL document CHEMBL1155921, “Synthesis and biological evaluation of novel 1-O- and 14-O-derivatives of oridonin as potential anticancer drug candidates” (Bioorg Med Chem Lett, 2008)
